Data on 33 compounds can be found in a melting point compilation (Tetko et al.; mined from patent text by program, amines drawn as free bases though some values may be those of a salt).

Structures are written as SMILES.

Broadly, the melting point is the temperature, or range, at which the solid turns liquid. With `O=C(O)C=CC(=O)NNC(=O)N1Cc2ccccc2Oc2ccc(Cl)cc21`, the melting point is 171 to 172 °C.
In turn, `O=C(CC1CCN(CCCn2c(=O)[nH]c3ccccc32)CC1)c1ccc(F)cc1` came in with a melting point of 208 °C.
Then `COc1cc2c(cc1Cl)C(O)(c1ccccc1Cl)C(=O)N2` (stereo not drawn), with 237 to 240 °C; and `O=C1CCCc2ccc(Nc3ncc(Cl)c(Nc4ccccc4S(=O)(=O)N4CCCC4)n3)cc2N1`, with 249 to 251 °C.
Consider `O=C(N[C@H](Cc1ccc(C(F)(F)F)cc1)[C@@H](O)c1ccc(Oc2ccccc2)cc1)c1cccc2c1C=CCCC2` (racemic), for which the melting point lay in the range of 191 to 192 °C.
Compound `O=c1[nH]c2ncc(-c3ccc(O)cc3)nc2n1CC1CCCN1` (stereo not drawn) showed a melting point of 178 to 180 °C.
Turning to `CSc1cnc(Cl)c(Cl)c1`, the melting point lay in the range of 66 to 67 °C.
`CC(=O)Nc1ccc(OC(C)C(=O)O)cc1` (stereo not drawn) had a melting point of 170 to 172 °C.
Turning to `CC(Oc1ccc(Oc2ccc(C(F)(F)F)cc2)cc1)C(=O)OCS(C)(=O)=O` (stereo not drawn), the melting point lay in the range of 87 to 88 °C.
As for `CCCCCc1nc(C#N)c(C#N)nc1O`, the melting point lay in the range of 61 to 64 °C.
`Brc1cc(-c2c3ccccc3c(Br)c3sc4ccccc4c23)cc(Br)c1OCc1nnn[nH]1` returned a melting point of 243 to 245 °C.
`CCOC(=O)c1cc(Cl)c(N)c2c1OCCO2` had a melting point of 105 to 106 °C.
In turn, `CC(C)(C)OC(=O)C[C@@H](CC1CCCC1)C(=O)N1C(=O)OC[C@@H]1Cc1ccccc1` displayed a melting point of 113 to 119 °C.
`O=C(c1ccc2c(c1)OC(c1cccc(Cl)c1)(c1cccc(Cl)c1)O2)N1CCCCC1` gave a melting point of 54 °C.
The same measure for `COC1C=CC2C3Cc4ccc(O)c5c4C2(CCN3C)C1O5` (stereo not drawn): 242 to 243 °C; for `Cc1nnc(-c2[nH]c3ccccc3c2Cl)o1`: 267 to 268 °C.
`O=C(NOC1CCCCO1)c1ccc(-c2ccc3ncnc(Nc4ccc(OCc5cccc(F)c5)c(Cl)c4)c3c2)s1` (stereo not drawn) registered a melting point of 250 °C.
`CCOC(=O)/C=C(\c1ccc(F)cc1)c1cc(OC)c(OC)c(OC)c1` had a melting point of 133 to 135 °C.
Consider `CC(C)(C)c1ccc(C(O)(c2ccc(C(C)(C)C)cc2)c2ncc[nH]2)cc1`, for which the melting point fell in the range of 215 to 216 °C.
Compound `COc1ccc(CN2CCc3cc(O)ccc3C2)c(OC)c1` showed a melting point of 149 to 152 °C.
Then `CN1C(c2cccc(F)c2)c2ccccc2S1(=O)=O` (single isomer, unassigned; (+)), with 147 °C; and `FC(F)(F)Sc1ccc(/C=C/c2nc(COc3ccc(-c4nc(Cn5ccnc5)co4)cc3)co2)cc1`, with 144 to 145 °C; and `COC(=O)[C@H](CC(C)C)NC(=O)[C@@H](O)[C@@H](Cc1ccc(SC)cc1)NC(=O)OCc1ccccc1`, with 130 to 132 °C.
`CCN(CC)C(=O)Cn1c(=N)sc2cc(OC(F)(F)F)ccc21` gave a melting point of 223 °C.
The compound `CCCCNC(=O)NS(=O)(=O)c1c(Cl)cccc1S(=O)(=O)N(C)C` returned a melting point of 107 to 115 °C.
On to `CC(=O)N1CCc2c(sc3nc(CN4C(=O)CCC4=O)c(Cl)c(-c4ccc(O)cc4)c23)C1`, for which the melting point amounted to 300 °C.
The same measure for `CC(C)CC1(C(CCN2C(=O)c3ccc([N+](=O)[O-])cc3C2=O)C(=O)NO)CCN(CCc2ccccc2)C1=O` (stereo not drawn): 161 to 162 °C.
For `COc1cc2nc(N)nc(-c3ccccc3Cl)c2cc1OC`, the melting point is 247 to 280 °C.
Compound `CN(C(=O)OC(C)(C)C)c1ccc(C#CCCCOS(C)(=O)=O)cc1` showed a melting point of 85 to 87 °C.
Then `NC(=O)c1cc2c(cc1OCC1CCCCC1)OCCC[C@H]2O`, with 164 to 165 °C; and `Cc1nnc(-c2ccc3ncn(C4CCN(C(=O)c5ccccc5)CC4)c3c2)o1`, with 158 to 159 °C; and `N=C(Nc1ccc(C(F)(F)F)cc1)Nc1ncccc1OCc1ccccc1`, with 154 to 155 °C.
Then `CC(=O)NC[C@H]1CN(c2ccc(C3=CCN(C(=O)COC(C)=O)CC3)c(F)c2)C(=O)O1`, with 188 to 191 °C.
